Experimental data reported in article PMC12767106, “In Situ Assembly of Transformable Monopeptide on Activated Neutrophils Attenuates NETs‐Induced Hepatocellular Carcinoma Metastasis by Disrupting NE Nuclear Translocation” (Advanced Science, 2025).

Assays:
[1] = test system: Hepa1-6/luc murine HCC cells; experiment: CCK-8 cytotoxicity; type: cell-based, mouse; conditions: CCK-8, 24 h, different dosages
Experimental: 10 minutes to remove unbound particles, and the supernatant was collected. […]
In vitro cytotoxicity assay
The CCK-8 assay was used to assess the cell viability of Hepa1-6/luc, resting neutrophils, and activated neutrophils. Following the seeding of 1*10^4 cells per well on a 96-well plate, the cells were subjected to different dosages of FTP-NPs and NFTP-NPs (medium: DMSO = 99:1 v/v). After 24 hours, the cells were incubated for two hours with 10 µL of CCK-8 solution. Finally, a microplate reader (Tecan Infinite M200, Switzerland) was used to measure cell viability based on the absorbance values.
Targeting the capability of NEBP
To evaluate the targeting capability of NE-binding peptide (NEBP), the harvested resting neutrophils and […]

[2] = test system: Hepa1-6 cells; experiment: Cell proliferation (CCK-8) with medium from treated neutrophils; type: cell-based, mouse; conditions: CCK-8, medium from activated neutrophils treated with NPs; versus Control and NFTP-NPs groups
Experimental: (§1) Submitted to Advanced Science
Freshly isolated neutrophils were stimulated with PBS, PMA, PMA+NFTP-NPs, PMA+FTP-NPs, and PMA+NEi for 4 h to stimulate NETs formation. Cells were then centrifuged at 480g for 10 minutes. The supernatant (NETs rich media) was then centrifuged at 18000g for 15 mins to form a pellet. The obtained pellet contained the mixture of chromatins and proteins, which was then resuspended in cell culture media to treat cancer cells, which was collected and respectively named as resting neutrophils, Control, NFTP-NPs, FTP-NPs, and NEi, then stored at -80◦C for further use.
Resting neutrophils (Neu)-treated, Control (Neu+PMA)-treated, NFTP-NPs (Neu+PMA+NFTP-NPs)-treated, FTP-NPs (Neu+PMA+FTP-NPs)-treated, and NEi (Neu+PMA+NEi)-treated Hepa1-6/luc cells and Hepa1-6/luc cells (2×10^3cells/well) were seeded on 96-well plates. Cell proliferation was assessed using the Cell Counting Kit-8 (Biosharp, China) following the manufacturer’s instructions. The final optical density (OD) value was measured daily for 3 consecutive days using a microplate reader at 450 nm (Tecan Infinite M200, Switzerland). Each condition was performed in triplicate. […]

[3] = test system: Hepa1-6/luc HCC xenograft; experiment: Subcutaneous Hepa1-6/luc tumor model, tumor growth; type: in vivo, mouse; conditions: C57BL/6J mice, 300 µM in 200 µL i.v. five times every two days; aPD-1 200 µg i.p. every 4 days, 3 doses; n = 5
Experimental: as §1
Total RNA was extracted and purified using a miRNeasy Mini Kit (FOREGENE, China). Quantitative real-time polymerase chain reaction (qRT-PCR) was performed in triplicate in the ABI 7500 fast real-time PCR System (Applied Biosystems, USA). The mRNAs were normalized with 18s. The following primers were used for PCR detection: E-cadherin, N-cadherin, Vimentin, and α-catenin.
Western blot analysis was performed to evaluate the levels of relative proteins in Hepa1-6/luc cells and Neutrophils.38 To evaluate NETs release, the neutrophils were exposed to PMA, PMA+NFTP -NPs, and PMA+FTP-NPs for 12 h. Following treatment, the cells underwent three PBS washes for WB to measure the expression of CitH3 proteins (Cat. no. ab5103, Abcam, Cambridge, England , UK). Furthermore, to evaluate EMT of Hepa1-6/luc cells, the cells underwent three PBS washes for WB to measure the expression of E - cadherin (Abmart, China), N-cadherin (Abmart, China), Vimentin (Abmart, China) , and β-catenin (Abmart, […]
In vivo subcutaneously implanted tumor models
The C57BL/6J mice with subcutaneous Hepa1-6/luc xenografts (grew up to roughly 100 mm 3) were separated into four groups according to the different treatments to perform the in vivo tumor therapy. […] Throughout the experiment, the tumor volumes and body weight were measured once every four days. […]

PpIX-GFFVLK-EAIPMSIPPEVK [FTP-NPs] was tested. Which survival rate [1] did it give?
The survival rate was “over 95%”.

And the “proliferation rate of Hepa1-6 cells” value [2]?
Its value is “much lower”.

What about the “tumor growth / increase in tumor volume” value [3] of the same substance?
Its value is “significant efficacy in suppressing tumor growth”.
